Source: ChEMBL document CHEMBL4177730, “Rational modification of semaxanib and sunitinib for developing a tumor growth inhibitor targeting ATP binding site of tyrosine kinase” (2018)
Activity calls are given as the source filed them.

Columns and labels:
Type in all cases: functional, cell-based
[1] = test system: A549; assay: Growth inhibition of human A549/ATCC cells at 10 uM after 48 hrs by sulforhodamine B assay
[2] = test system: SF-295; assay: Growth inhibition of human SF295 cells at 10 uM after 48 hrs by sulforhodamine B assay
[3] = test system: K562; assay: Growth inhibition of human K562 cells at 10 uM after 48 hrs by sulforhodamine B assay
[4] = test system: MDA-MB-435; assay: Growth inhibition of human MDA-MB-435 cells at 10 uM after 48 hrs by sulforhodamine B assay
[5] = test system: T47D; assay: Growth inhibition of human T47D cells at 10 uM after 48 hrs by sulforhodamine B assay
[6] = test system: HOP-92; assay: Growth inhibition of human HOP92 cells at 10 uM after 48 hrs by sulforhodamine B assay
[7] = test system: SK-MEL-28; assay: Growth inhibition of human SK-MEL-28 cells at 10 uM after 48 hrs by sulforhodamine B assay
[8] = test system: CCRF-CEM; assay: Growth inhibition of human CCRF-CEM cells at 10 uM after 48 hrs by sulforhodamine B assay
[9] = test system: HCT-15; assay: Growth inhibition of human HCT15 cells at 10 uM after 48 hrs by sulforhodamine B assay
[10] = test system: NCI-H322M; assay: Growth inhibition of human NCI-H322M cells at 10 uM after 48 hrs by sulforhodamine B assay
[11] = test system: MDA-MB-468; assay: Growth inhibition of human MDA-MB-468 cells at 10 uM after 48 hrs by sulforhodamine B assay
[12] = test system: HOP-62; assay: Growth inhibition of human HOP62 cells at 10 uM after 48 hrs by sulforhodamine B assay
[13] = test system: A498; assay: Growth inhibition of human A498 cells at 10 uM after 48 hrs by sulforhodamine B assay
[14] = test system: NCI-H460; assay: Growth inhibition of human NCI-H460 cells at 10 uM after 48 hrs by sulforhodamine B assay
[15] = test system: SK-MEL-5; assay: Growth inhibition of human SK-MEL-5 cells at 10 uM after 48 hrs by sulforhodamine B assay
[16] = test system: SR; assay: Growth inhibition of human SR cells at 10 uM after 48 hrs by sulforhodamine B assay
[17] = test system: NCI-H23; assay: Growth inhibition of human NCI-H23 cells at 10 uM after 48 hrs by sulforhodamine B assay
[18] = test system: HL-60(TB); assay: Growth inhibition of human HL-60(TB) cells at 10 uM after 48 hrs by sulforhodamine B assay
[19] = test system: HT-29; assay: Growth inhibition of human HT-29 cells at 10 uM after 48 hrs by sulforhodamine B assay
[20] = test system: NCI-H522; assay: Growth inhibition of human NCI-H522 cells at 10 uM after 48 hrs by sulforhodamine B assay
[21] = test system: UO-31; assay: Growth inhibition of human UO31 cells at 10 uM after 48 hrs by sulforhodamine B assay
[22] = test system: OVCAR-4; assay: Growth inhibition of human OVCAR4 cells at 10 uM after 48 hrs by sulforhodamine B assay
[23] = test system: 786-0; assay: Growth inhibition of human 786-0 cells at 10 uM after 48 hrs by sulforhodamine B assay
[24] = test system: MOLT-4; assay: Growth inhibition of human MOLT4 cells at 10 uM after 48 hrs by sulforhodamine B assay
[25] = test system: NCI-H226; assay: Growth inhibition of human NCI-H226 cells at 10 uM after 48 hrs by sulforhodamine B assay
[26] = test system: KM12; assay: Growth inhibition of human KM12 cells at 10 uM after 48 hrs by sulforhodamine B assay
[27] = test system: CAKI-1; assay: Growth inhibition of human CAKI-1 cells at 10 uM after 48 hrs by sulforhodamine B assay
[28] = test system: U-251; assay: Growth inhibition of human U251 cells at 10 uM after 48 hrs by sulforhodamine B assay
[29] = test system: HCC 2998; assay: Growth inhibition of human HCC2998 cells at 10 uM after 48 hrs by sulforhodamine B assay
[30] = test system: SK-MEL-2; assay: Growth inhibition of human SK-MEL-2 cells at 10 uM after 48 hrs by sulforhodamine B assay
[31] = test system: Hs-578T; assay: Growth inhibition of human Hs 578T cells at 10 uM after 48 hrs by sulforhodamine B assay
[32] = test system: PC-3; assay: Growth inhibition of human PC3 cells at 10 uM after 48 hrs by sulforhodamine B assay
[33] = test system: BT-549; assay: Growth inhibition of human BT549 cells at 10 uM after 48 hrs by sulforhodamine B assay
[34] = test system: MCF7; assay: Growth inhibition of human MCF7 cells at 10 uM after 48 hrs by sulforhodamine B assay
[35] = test system: LOX IMVI; assay: Growth inhibition of human LOXIMVI cells at 10 uM after 48 hrs by sulforhodamine B assay
[36] = test system: SNB-19; assay: Growth inhibition of human SNB19 cells at 10 uM after 48 hrs by sulforhodamine B assay
[37] = test system: DU-145; assay: Growth inhibition of human DU145 cells at 10 uM after 48 hrs by sulforhodamine B assay
[38] = test system: IGROV-1; assay: Growth inhibition of human IGROV1 cells at 10 uM after 48 hrs by sulforhodamine B assay
[39] = test system: M14; assay: Growth inhibition of human M14 cells at 10 uM after 48 hrs by sulforhodamine B assay
[40] = test system: SNB-75; assay: Growth inhibition of human SNB75 cells at 10 uM after 48 hrs by sulforhodamine B assay
[41] = test system: HCT-116; assay: Growth inhibition of human HCT116 cells at 10 uM after 48 hrs by sulforhodamine B assay
[42] = test system: SF-539; assay: Growth inhibition of human SF539 cells at 10 uM after 48 hrs by sulforhodamine B assay
[43] = test system: SW-620; assay: Growth inhibition of human SW620 cells at 10 uM after 48 hrs by sulforhodamine B assay
[44] = test system: OVCAR-8; assay: Growth inhibition of human OVCAR8 cells at 10 uM after 48 hrs by sulforhodamine B assay
[45] = test system: SN12C; assay: Growth inhibition of human SN12C cells at 10 uM after 48 hrs by sulforhodamine B assay
[46] = test system: Malme-3M; assay: Growth inhibition of human MALME-3M cells at 10 uM after 48 hrs by sulforhodamine B assay
[47] = test system: NCI/ADR-RES; assay: Growth inhibition of human NCI-ADR-RES cells at 10 uM after 48 hrs by sulforhodamine B assay
[48] = test system: OVCAR-5; assay: Growth inhibition of human OVCAR5 cells at 10 uM after 48 hrs by sulforhodamine B assay
[49] = test system: OVCAR-3; assay: Growth inhibition of human OVCAR3 cells at 10 uM after 48 hrs by sulforhodamine B assay
[50] = test system: UACC-62; assay: Growth inhibition of human UACC62 cells at 10 uM after 48 hrs by sulforhodamine B assay
[51] = test system: RXF 393; assay: Growth inhibition of human RXF393 cells at 10 uM after 48 hrs by sulforhodamine B assay
[52] = test system: TK-10; assay: Growth inhibition of human TK10 cells at 10 uM after 48 hrs by sulforhodamine B assay
[53] = test system: RPMI-8226; assay: Growth inhibition of human RPMI8226 cells at 10 uM after 48 hrs by sulforhodamine B assay
[54] = test system: SF-268; assay: Growth inhibition of human SF268 cells at 10 uM after 48 hrs by sulforhodamine B assay
[55] = test system: ACHN; assay: Growth inhibition of human ACHN cells at 10 uM after 48 hrs by sulforhodamine B assay
[56] = test system: COLO 205; assay: Growth inhibition of human COLO205 cells at 10 uM after 48 hrs by sulforhodamine B assay
[57] = test system: MDA-MB-231; assay: Growth inhibition of human MDA-MB-231 cells at 10 uM after 48 hrs by sulforhodamine B assay
[58] = test system: SK-OV-3; assay: Growth inhibition of human SKOV3 cells at 10 uM after 48 hrs by sulforhodamine B assay
[59] = test system: EKVX; assay: Growth inhibition of human EKVX cells at 10 uM after 48 hrs by sulforhodamine B assay

Measured: growth inhibition (GI)

O=C1/C(=C\c2cccn2Cc2ccc(Cl)cc2)c2ccccc2N1c1c(Cl)cccc1Cl
inactive: [1] | [2] | [3] | [4] | [5] | [6] | [7] | [8] | [9] | [10] | [11] | [12] | [13] | [14] | [15] | [16] | [17] | [18] | [19] | [20] | [21] | [22] | [23] | [24] | [25] | [26] | [27] | [28] | [29] | [30] | [31] | [32] | [33] | [34] | [35] | [36] | [37] | [38] | [39] | [40] | [41] | [42] | [43] | [44] | [45] | [46] | [47] | [48] | [49] | [50] | [51] | [52] | [53] | [54] | [55] | [56] | [57] | [58] | [59]
